Assay results as given in patent US20080214509A1, “Methods for enhancing the efficacy of vascular disrupting agents” (priority 2007, published 2008).

Assays:
[1] = tested on: CEPs; assay: Circulating endothelial progenitor cell (CEP) levels in peripheral blood by flow cytometry, non-tumor bearing mice; assay type: in vivo; settings: non-tumor bearing Balb/c mice; AMD-3100 5 mg/kg, CA1P 100 mg/kg; 4 hours or 24 hours post-treatment; FIG. 1
Method: Non-tumor bearing Balb/c mice (8-10 weeks old) were treated with one of the following agents: (i) 5 mg/kg of AMD-3100, a specific CXCR-4 antagonist; (ii) 100 mg/kg of CA1P, a VDA; or (iii) a combination of AMD-3100 and CA1P. At either 4 hours or 24 hours post-treatment, mice were bled from the retro-orbital sinus to evaluate levels of CEPs by flow cytometry.

[2] = tested on: MeWo human melanoma cells; assay: MeWo melanoma tumors (500 mm^3) in nude mice: SDF-1/CXCR4 staining, necrosis, hypoxia, perfusion; assay type: in vivo; settings: day 4
Method: MeWo human melanoma cells were implanted subdermally in nude mice. When tumors reached 500 mm^3, treatment with CA1P, AMD-3100 or the combination of the two drugs was initiated. CA1P was given as a single injection and AMD-3100 was given in a concentration of 5 mg/kg for 3 sequential days. On day 4, mice were sacrificed and tumors harvested for evaluation of the expression of human SDF-1 and mouse CXCR4, as well as tumor necrosis, hypoxia and vessel perfusion.
Longitudinal tumor sections were stained for either SDF-1 or mouse CXCR4 expression.
FIG. 2 provides a statistical quantification of the relative necrosis area in all tumors from treated and untreated mice. Hypoxic tumor area and perfused tumor area was also measured for all treated and untreated tumors using pimonidazole and Hoechst staining respectively (see FIG. 3).

[3] = tested on: SDF-1; assay: Plasma SDF-1 by ELISA in nude mice after VDA treatment; assay type: in vivo; settings: both tumor-free and 500 mm^3 MeWo tumor-bearing nude mice; 4 hours after treatment
Method: To investigate the possibility that systemic induction of SDF-1 is involved in the acute mobilization of CEPs by VDA treatment, plasma from non-tumor or 500 mm^3 MeWo human melanoma bearing nude mice obtained 4 hours after treatment with CA1P was analyzed for human and mouse SDF-1 using specific ELISAs. From this analysis, it was determined that an acute 2 fold increase in SDF-1 occurs in both tumor-free and tumor-bearing nude mice following CA1P treatment. […] Thus, there is a rapid host proangiogenic reaction in response to VDA treatment similar to that observed in mice.

[4] = tested on: Lewis-Lung Carcinoma (LLC) cells; assay: Lewis-Lung Carcinoma tumors in irradiated mice transplanted with GFP+ bone marrow: necrosis and bone marrow cell incorporation; assay type: in vivo; settings: LLC tumors in C57Bl mice with GFP+ bone marrow; day 4
Method: To assess the incorporation of bone marrow proangiogenic cells to the tumor site, Lewis-Lung Carcinoma (LLC) cells were implanted into the flanks of lethally irradiated C57Bl mice that were previously transplanted with GFP+bone marrow tagged cells. When tumors reached 500 mm^3, treatment with CA1P, AMD-3100 or the combination of the two was initiated. AMD-3100 was given in a concentration of 5 mg/kg for 3 sequential days. On day 4, mice were sacrificed and tumors removed for the evaluation of bone marrow derived cell (GFP+ cells) invasion and incorporation into tumor blood vessels (CD31+ cells). Tumors were also evaluated for necrosis by green fluorescence, as necrotic tissue is auto-fluorescent under GFP (fluorescent) channel.

[5] = tested on: SDF-1; assay: Clinical data from cancer patients with advanced solid tumors treated with a VDA; assay type: in vivo, human; settings: 12 cancer patients with advanced solid tumors; 4 hours after treatment
[6] = MeWo tumors, CA1P single injection, AMD-3100 5 mg/kg for 3 sequential days

SMILES	CEP levels in peripheral blood [1]	human SDF-1 levels in tumors ([2]; MeWo tumor sections)	invasion of mouse CXCR4+ cells to the tumor site ([2]; MeWo tumor sections)	tumor hypoxia (pimonidazole staining) [2, 6] [%]	tumor necrosis (area of total tumor area) [2, 6] [%]	tumor perfusion (Hoechst staining) [2, 6] [%]	increase in plasma SDF-1 [3] [fold]	bone marrow derived (GFP+) cell homing to tumor site and incorporation into tumor blood vessels (CD31+) [4]	circulating SDF-1 plasma levels [5]	number of CD133 and CD34 positive cells [5]
c1cc(CN2CCCNCCNCCCNCC2)ccc1CN1CCCNCCNCCCNCC1 [AMD-3100, 1,1′-[1,4-phenylenebis(methylene)]-bis-1,4,8,11-tetra-azacyclotetradecane]	rapid and significant increases									
COc1cc(/C=C\c2ccc(OC)c(OP(=O)(O)O)c2OP(=O)(O)O)cc(OC)c1OC [CA1P, combretastatin A-1 diphosphate]	rapid and significant increases	upregulation	invasion of mouse CXCR4+ cells to the tumor site	~12	~30	~7	2	recruits bone marrow derived proangiogenic cells to tumors		
COc1ccc(/C=C\c2cc(OC)c(OC)c(OC)c2)cc1OP(=O)(O)O [CA4P, combretastatin A-4 phosphate]									substantially increased	substantially increased
